In patent US20080153818A1, “METHODS FOR PREVENTING INFLAMMATION DURING SURGERY” (priority 2006, published 2008):

Assays:
[1] = test system: preretinal neovascularization (NV) in the rat model of oxygen-induced retinopathy (OIR); experiment: Rat oxygen-induced retinopathy (OIR) model, single intravitreal injection; assay type: in vivo, Sprague-Dawley rats
Description: METHODS. Pregnant Sprague-Dawley rats were received at 14 days gestation and subsequently gave birth on Day 22±1 of gestation. Immediately following parturition, pups were pooled and randomized into separate litters (n=17 pups/litter), placed into separate shoebox cages inside oxygen delivery chamber, and subjected to an oxygen-exposure profile from Day 0-14 postpartum. Litters were then placed into room air from Day 14/0 through Day 14/6 (days 14-20 postpartum). Additionally on Day 14/0, each pup was randomly assigned as an oxygen-exposed control or into various treatment groups. For those randomized into an injection treatment group: one eye received a 5 μl intravitreal injection of 0.1%, 0.3%, 0.6%, or 1% RTKi and the contralateral eye received a 5 μl intravitreal injection of vehicle. At Day 14/6 (20 days postpartum), all animals in both studies were euthanized.
Immediately following euthanasia, retinas from all rat pups were harvested, fixed in 10% neutral buffered formalin for 24 hours, subjected to ADPase staining, and fixed onto slides as whole mounts. Digital images were acquired from each retinal flat mount that was adequately prepared. Computerized image analysis was used to obtain a NV clockhour score from each readable sample. Each clockhour out of 12 total per retina was assessed for the presence or absence of preretinal NV. […]

[2] = test system: preretinal neovascularization (NV) in the rat OIR model; experiment: Rat OIR model, oral gavage; assay type: in vivo, Sprague-Dawley rats
Description: Immediately following euthanasia, retinas from all rat pups were harvested, fixed in 10% neutral buffered formalin for 24 hours, subjected to ADPase staining, and fixed onto slides as whole mounts. Digital images were acquired from each retinal flat mount that was adequately prepared. Computerized image analysis was used to obtain a NV clockhour score from each readable sample. Each clockhour out of 12 total per retina was assessed for the presence or absence of preretinal NV. Statistical comparisons using median scores for NV clockhours from each treatment group were utilized in nonparametric analyses. Each noninjected pup represented one NV score by taking the average value of both eyes and was used in comparisons against each dosage group. Because the pups were randomly assigned and no difference was observed between oxygen-exposed control pups from all litters, the NV scores were combined for all treatment groups. P≦0.05 was considered statistically significant.
METHODS. Pregnant Sprague-Dawley rats were received at 14 days gestation and subsequently gave birth on Day 22±1 of gestation. Immediately following parturition, pups were pooled and randomized into separate litters (n=17 pups/litter), placed into separate shoebox cages inside oxygen delivery chamber, and subjected to an oxygen-exposure profile from Day 0 to Day 14 postpartum. Litters were then placed into room air from Day 14/0 through Day 14/6 (days 14-20 postpartum). Additionally on Day 14/0, each pup was randomly assigned as oxygen-exposed controls, vehicle treated, or drug-treated at 1.5, 5, 10 mg/kg, p.o., BID. At Day 14/6 (20 days postpartum), all animals in both studies were euthanized and retina whole mounts were prepared as described in Example 1 above.

[3] = test system: laser-induced choroidal neovascularization (CNV); experiment: Mouse laser-induced CNV, prevention, intravitreal injection; assay type: in vivo, C57BL/6J mice
Description: (§1) METHODS. CNV was generated by laser-induced rupture of Bruch's membrane. Briefly, 4 to 5 week old male C57BL/6J mice were anesthetized using intraperitoneal administration of ketamine hydrochloride (100 mg/kg) and xylazine (5 mg/kg) and the pupils of both eyes dilated with topical ocular instillation of 1% tropicamide and 2.5% Mydfin®. One drop of topical cellulose (Gonioscopic®) was used to lubricate the cornea. A hand-held cover slip was applied to the cornea and used as a contact lens to aid visualization of the fundus. Three to four retinal burns were placed in randomly assigned eye (right or left eye for each mouse) using the Alcon 532 nm EyeLite laser with a slit lamp delivery system. The laser burns were used to generate a rupture in Bruch's membrane, which was indicated ophthalmoscopically by the formation of a bubble under the retina. Only mice with laser burns that produced three bubbles per eye were included in the study. Burns were typically placed at the 3, 6, 9 or 12 o'clock positions in the posterior pole of the retina, avoiding the branch retinal arteries and veins.
(§2) Each mouse was randomly assigned into one of the following treatment groups: noninjected controls, sham-injected controls, vehicle-injected mice, or one of three RTKi-injected groups. […]

[4] = test system: existing laser-induced choroidal neovascularization (CNV); experiment: Mouse laser-induced CNV, regression of existing CNV, intravitreal injection at day 7; assay type: in vivo; settings: single intravitreal injection
Description: as §1, §2
METHODS. […] Choroidal flat mounts were analyzed as described above in Example 3.

[5] = test system: laser-induced choroidal neovascularization (CNV); experiment: Mouse laser-induced CNV, prevention paradigm, oral gavage; assay type: in vivo; settings: for inhibition of CNV (in words): prevention paradigm, 14 days
[6] = test system: existing laser-induced choroidal neovascularization (CNV); experiment: Mouse laser-induced CNV, regression paradigm, oral gavage from day 7; assay type: in vivo; settings: 3 mg/kg/day oral from day 7
[7] = test system: diabetes-induced retinal vascular permeability (STZ rat model); experiment: STZ diabetic rat retinal vascular permeability, oral gavage; assay type: in vivo
Description: METHODS. Diabetes was induced in male Long-Evans rats with 65 mg/kg streptozotocin (STZ) after an overnight fast. Upon confirmation of diabetes (blood glucose >250 mg/dl), treatment was initiated by oral gavage. Non-diabetic (NDM) and diabetic (DM) rats received oral gavage of either vehicle or RTK inhibitor at 1.5 or 5 mg/kg/d BID. After 2 weeks, jugular vein catheters were implanted 1 day prior to experimentation for the infusion of indicator dye. Retinal vascular permeability, RVP, was measured using Evan's blue albumin permeation (45 mg/kg) after a 2 hour circulation period.

[8] = NDM and DM groups, oral gavage, 2 weeks

For `Cc1ccc(F)c(NC(=O)Nc2ccc(-c3cccc4[nH]nc(N)c34)cc2)c1` [Compound 86, N-[4-[3-amino-1H-indazol-4-yl]phenyl]-N′-(2-fluoro-5-methylphenyl)urea], the “efficacy against preretinal NV (in words)” value ([1]; 0.1% treated eyes, intravitreal) was “Efficacy was not observed”, the “effect on preretinal neovascularization (in words, FIG. 1)” value ([1]; single intravitreal injection) was “inhibits” and the “decrease in NV (in words)” value ([2]; 3 mg/kg/day p.o.) was “did not have a significant decrease”. The “inhibition of preretinal NV (in words)” value ([2]; 20 mg/kg/day p.o.) was “complete inhibition”, the “effect on preretinal neovascularization (in words, FIG. 2)” value ([2]; oral gavage) was “prevents” and the “difference in CNV versus vehicle injected eyes (in words)” value ([3]; 0.3% RTKi, intravitreal) was “marginal statistical difference”. For the same compound, the “effect on laser-induced CNV (in words, FIG. 3)” value ([3]; single intravitreal injection) was “inhibits”, the “effect on existing laser-induced CNV (in words, FIG. 4)” value [4] was “induces regression” and the “effect on laser-induced CNV (in words, FIG. 6)” value ([5]; oral gavage) was “inhibits”. For the same compound, the “inhibition of CNV (in words)” value ([5]; 3 mg/kg/day oral gavage) was “no significant inhibition”, the “inhibition of CNV (in words)” value ([5]; 20 mg/kg/d oral gavage) was “complete inhibition” and the “regression of existing CNV (in words)” value [6] was “did not show a significant regression”. The “RVP (in words)” value ([7]; NDM (non-diabetic) rats, 5 mg/kg/d oral gavage) was “unchanged”, the “systemic or ERG side effects” value [7, 8] was “no observed systemic or ERG side effects” and the “tolerability of oral treatment” value [7, 8] was “well tolerated”.
